Counter-ions that a name gives are not always drawn. Like-named read-outs stand apart in the source and are kept apart here.
Key:
[1] = biological target: T1, Human dihydrofolate reductase (hDHFR) (Homo sapiens, UniProt P00374); assay: Inhibition of human dihydrofolate reductase (Ki); assay type: biochemical; settings: human DHFR; hydrochloride salts
T1 sequence (P00374 1-187): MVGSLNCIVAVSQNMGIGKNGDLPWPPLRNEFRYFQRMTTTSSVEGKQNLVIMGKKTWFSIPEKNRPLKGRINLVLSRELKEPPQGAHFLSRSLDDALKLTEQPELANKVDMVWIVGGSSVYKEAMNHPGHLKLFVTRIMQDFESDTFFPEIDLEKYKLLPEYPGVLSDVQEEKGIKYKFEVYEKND

[2] = system: P. falciparum TM4/8.2 (wild type); assay: microbe, parasite or virus in culture; assay type: cell-based, Plasmodium falciparum; settings: Plasmodium falciparum, read-out: IC50 P. falciparum TM4/8.2 (WT)
From the text: (§1) In Vitro Antimalarial Activites Against P. falciparum and Cytotoxicity Towards Mammalian Cells (Vero Cells)

[3] = system: P. falciparum V1/S (N51I + C59R + S108 + I164L); assay: microbe, parasite or virus in culture; assay type: cell-based, Plasmodium falciparum; settings: Plasmodium falciparum, read-out: IC50 P. falciparum V1/S
From the text: as §1

[4] = biological target: quadruple mutant N51I + C59R + S108N + I164L (QM) pfDHFR (Plasmodium falciparum, UniProt P13922, I164L/N51I); assay: Inhibition of quadruple mutant pfDHFR (Ki); assay type: biochemical
quadruple mutant N51I + C59R + S108N + I164L (QM) pfDHFR, sequence (P13922 whole entry N51I/I164L): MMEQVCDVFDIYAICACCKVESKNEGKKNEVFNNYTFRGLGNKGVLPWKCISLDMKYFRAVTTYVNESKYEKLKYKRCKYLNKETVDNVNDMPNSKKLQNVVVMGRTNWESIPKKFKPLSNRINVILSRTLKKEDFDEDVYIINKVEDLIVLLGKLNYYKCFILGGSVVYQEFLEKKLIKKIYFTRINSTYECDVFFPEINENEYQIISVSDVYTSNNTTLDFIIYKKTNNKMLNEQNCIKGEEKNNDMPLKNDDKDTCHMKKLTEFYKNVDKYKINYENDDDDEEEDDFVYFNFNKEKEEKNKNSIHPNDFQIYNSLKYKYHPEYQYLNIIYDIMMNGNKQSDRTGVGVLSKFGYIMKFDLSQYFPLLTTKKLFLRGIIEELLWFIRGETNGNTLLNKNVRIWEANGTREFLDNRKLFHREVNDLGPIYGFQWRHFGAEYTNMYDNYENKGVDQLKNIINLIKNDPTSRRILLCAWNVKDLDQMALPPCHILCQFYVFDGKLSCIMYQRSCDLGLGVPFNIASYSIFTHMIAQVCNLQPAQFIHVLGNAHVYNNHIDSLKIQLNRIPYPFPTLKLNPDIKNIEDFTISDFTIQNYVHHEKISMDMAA
Procedure: (§2) The synthesized 2,4-diamino-6-ethylpyrimdine derivatives as the hydrochloride salts were tested for the activities against Plasmodium falciparum (P. falciparum) according to the standard methods. These include the inhibition of dihydrofolate reductase (DHFR) enzymes of P. falciparum including, wild type (WT) and quadruple mutants (N51IC59RS108NI164L) (QM). The inhibition was expressed as inhibition constants (Ki) in nano molar (nM).

wild type (WT) pfDHFR = wild type (WT) pfDHFR (Plasmodium falciparum, UniProt P13922, N108S/R59C); assay: Inhibition of wild type pfDHFR (Ki); assay type: biochemical
wild type (WT) pfDHFR, sequence (P13922 whole entry R59C/N108S): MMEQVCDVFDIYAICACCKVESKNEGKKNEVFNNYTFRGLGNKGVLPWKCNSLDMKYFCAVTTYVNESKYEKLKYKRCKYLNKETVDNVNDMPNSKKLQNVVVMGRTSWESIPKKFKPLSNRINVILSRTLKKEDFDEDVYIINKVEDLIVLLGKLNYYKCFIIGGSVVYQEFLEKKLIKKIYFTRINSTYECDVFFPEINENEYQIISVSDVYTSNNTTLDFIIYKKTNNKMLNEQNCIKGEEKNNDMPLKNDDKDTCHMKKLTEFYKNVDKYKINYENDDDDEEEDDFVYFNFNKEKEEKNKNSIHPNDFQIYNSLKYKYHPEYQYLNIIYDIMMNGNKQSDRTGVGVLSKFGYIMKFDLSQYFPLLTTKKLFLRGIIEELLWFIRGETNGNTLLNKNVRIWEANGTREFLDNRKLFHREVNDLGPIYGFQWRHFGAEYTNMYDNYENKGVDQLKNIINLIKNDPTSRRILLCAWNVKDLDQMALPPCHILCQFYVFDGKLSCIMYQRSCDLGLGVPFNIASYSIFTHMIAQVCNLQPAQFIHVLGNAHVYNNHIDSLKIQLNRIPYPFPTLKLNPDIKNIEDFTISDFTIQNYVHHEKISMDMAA
Procedure: as §2

in vitro = settings: African green monkey
From the text: as §1

[5] = in vitro, wild-type strain TM4/8.2
[6] = in vitro, quadruple mutant strain V1/S

| Compound | Ki [1] [µM] | IC50 [2, 5] [µM] | IC50 [3, 6] [µM] | Ki [4] [µM] | Ki (wild type (WT) pfDHFR) [µM] | IC50 (in vitro) [µM] | IC50 [2] [µM] | IC50 [3] [µM] | Ki hDHFR [1] | melting point [°C] |
| --- | --- | --- | --- | --- | --- | --- | --- | --- | --- | --- |
| CCc1nc(N)nc(N)c1OCc1csc(-c2ccc(C(=O)O)cc2)n1 [Compound 75] | 0.301 ± 0.0244 | 2.65 ± 0.43 | > 50 | 0.0392 ± 0.00382 | 0.00069 ± 0.00012 | > 50 |  |  |  |  |
| CCc1nc(N)nc(N)c1OCCc1coc(-c2ccc(C(=O)O)cc2)n1 [Compound 59] | 0.0174 ± 0.00114 | 0.052 ± 0.01 | > 10 | 0.00156 ± 7e-05 | 0.00026 ± 1e-05 | > 10 |  |  |  |  |
| CCc1nc(N)nc(N)c1OCc1csc(-c2ccc(Br)cc2)n1 [Compound 71] | 0.203 ± 0.0272 | 1.09 ± 0.44 | 18.7 ± 1.9 | 0.0243 ± 0.00175 | 0.00076 ± 0.00015 | > 25 |  |  |  |  |
| CCc1nc(N)nc(N)c1-c1cn(CCc2ccccc2)nn1 [Compound 7] | 3.22 ± 0.0862 |  |  | 0.0701 ± 0.00692 | 0.00224 ± 0.0001 | > 50 | 2.62 ± 0.33 | > 50 |  |  |
| CCc1nc(N)nc(N)c1-c1cn(Cc2ccccc2)nn1 [Compound 3] | 3.14 ± 0.242 |  |  | 0.0139 ± 0.00198 | 0.0114 ± 0.00081 | > 50 | 3.57 ± 1.25 | 19.9 ± 7.03 |  |  |
| CCc1nc(N)nc(N)c1OCCCc1cc(-c2cccc(C(=O)OC)c2)no1 [Compound 48] | 0.0252 ± 0.0089 | 0.045 ± 0.0015 | 0.1 ± 0.03 | 0.00087 ± 0.00015 | 0.00026 ± 7e-05 | 0.76 |  |  |  |  |
| CCc1nc(N)nc(N)c1OCCCc1cn(Cc2ccc(C(=O)O)cc2)nn1 [Compound 32] | 0.0543 ± 0.00105 | 0.087 ± 0.03 | 3.75 ± 0.43 | 0.00472 ± 0.00077 | 0.00036 ± 2e-05 | > 50 |  |  |  |  |
| CCc1nc(N)nc(N)c1OCc1csc(-c2cccc(C(=O)OC)c2)n1 [Compound 65] | 0.195 ± 0.0082 |  |  | 0.0567 ± 0.00579 | 0.00051 ± 4e-05 | > 50 | 0.4 ± 0.08 | > 50 |  |  |
| CCc1nc(N)nc(N)c1-c1cn(Cc2ccc(OC(=O)N(c3ccccc3)c3ccccc3)cc2)nn1 [Compound 6] |  | 5.59 ± 1.54 | 4.31 ± 0.93 | 0.0175 ± 0.00219 | 0.0103 ± 0.00169 | > 25 |  |  | High |  |
| CCc1nc(N)nc(N)c1OCCc1cn(-c2ccc(C(=O)O)cc2)nn1 [Compound 22] |  | 0.62 ± 0.18 | > 50 | 0.00464 ± 0.0006 | 0.00026 ± 4e-05 | > 50 |  |  | High |  |
| CCc1nc(N)nc(N)c1OCCCc1cc(-c2cccc(C#N)c2)no1 [Compound 47] | 0.0214 ± 0.00091 |  |  | 0.00102 ± 7e-05 | 0.00027 ± 3e-05 | 0.56 | 0.04 ± 0.007 | 5.51 ± 0.47 |  |  |
| CCc1nc(N)nc(N)c1OCc1cn(-c2ccc(C(=O)O)cc2)nn1 [Compound 19] |  | > 10 | > 10 | 0.671 ± 0.0272 | 0.00779 ± 0.00133 | > 10 |  |  | High |  |
| CCc1nc(N)nc(N)c1-c1cn(-c2ccccc2)nn1 [Compound 1] |  | > 50 | > 50 | 6.02 ± 0.772 | 0.0497 ± 0.00418 | > 50 |  |  | High |  |
| CCc1nc(N)nc(N)c1OCc1coc(-c2ccc(Cl)cc2)n1 [Compound 55] | > 100 | 0.87 ± 0.11 | > 25 | 0.0329 ± 0.00413 | 0.00114 ± 0.00017 | > 25 |  |  |  |  |
| CCc1nc(N)nc(N)c1OCc1cc(-c2ccc(Br)cc2)no1 [Compound 36] | 1.35 ± 0.104 | 2.86 ± 0.56 | 17.5 ± 2.96 | 0.0646 ± 0.00116 | 0.00103 ± 0.0002 | > 25 |  |  |  |  |
| CCc1nc(N)nc(N)c1-c1cn(CCOc2ccc(Cl)cc2)nn1 [Compound 9] | 1.67 ± 0.0595 |  |  | 0.0108 ± 0.00102 | 0.00114 ± 6e-05 | 47.4 ± 11.6 | 2.24 ± 0.6 | 15.9 ± 5.63 |  |  |
| CCc1nc(N)nc(N)c1OCc1csc(-c2cccc(OCC(=O)O)c2)n1 [Compound 64] | 0.184 ± 0.0214 | 0.55 ± 0.12 | > 50 | 0.0413 ± 0.00741 | 0.0006 ± 4e-05 | > 50 |  |  |  |  |
| CCc1nc(N)nc(N)c1OCc1coc(-c2cccc([N+](=O)[O-])c2)n1 [Compound 52] | > 100 | 2.66 ± 0.31 | 15.1 ± 1.49 | 0.0932 ± 0.025 | 0.00263 ± 0.00026 | > 50 |  |  |  |  |
| CCc1nc(N)nc(N)c1OCCCc1cc(-c2ccc(Cl)cc2)no1 [Compound 45] | 0.037 ± 0.00536 | 0.27 ± 0.08 | 6.37 ± 1.97 | 0.0039 ± 0.00068 | 0.00199 ± 0.00043 | > 50 |  |  |  |  |
| CCc1nc(N)nc(N)c1OCc1cc(-c2cccc(C(F)(F)F)c2)no1 [Compound 37] | > 100 | 3.26 ± 0.81 | 20.2 ± 1.37 | 0.106 ± 0.0173 | 0.00212 ± 0.00018 | 37.1 ± 1.81 |  |  |  |  |
| CCc1nc(N)nc(N)c1-c1cn(CCOc2ccc(C(=O)OC)cc2)nn1 [Compound 10] |  | 0.88 ± 0.36 | 21 ± 4.49 | 0.00696 ± 0.00112 | 0.00101 ± 4e-05 | 38.9 ± 2.14 |  |  | High |  |

| Compound | Ki [1] [µM] | IC50 [2, 5] [µM] | IC50 [3, 6] [µM] | Ki [4] [µM] | Ki (wild type (WT) pfDHFR) [µM] | IC50 (in vitro) [µM] | IC50 [2] [µM] | IC50 [3] [µM] | Ki hDHFR [1] | melting point [°C] |
| --- | --- | --- | --- | --- | --- | --- | --- | --- | --- | --- |
| CCc1nc(N)nc(N)c1-c1cn(CCCOc2ccc(C(=O)OC)cc2)nn1 [Compound 12] | 0.875 ± 0.0279 |  |  | 0.034 ± 0.00551 | 0.00082 ± 6e-05 | 47.6 ± 6.27 | 0.97 ± 0.4 | > 50 |  |  |
| CCc1nc(N)nc(N)c1OCc1cn(-c2cccc([N+](=O)[O-])c2)nn1 [Compound 14] | > 500 | 3.42 ± 0.61 | 4.43 ± 1.13 | 0.237 ± 0.0417 | 0.00862 ± 0.00115 | > 50 |  |  |  |  |
| CCc1nc(N)nc(N)c1OCc1csc(-c2ccc(OCC(=O)OCc3ccccc3)cc2)n1 [Compound 72] | 0.14 ± 0.022 | 0.23 ± 0.03 | > 50 | 0.0303 ± 0.00563 | 0.0008 ± 9e-05 | > 50 |  |  |  |  |
| CCc1nc(N)nc(N)c1OCCc1cn(-c2ccc(C(=O)OC)cc2)nn1 [Compound 21] | 1.06 ± 0.0895 | 0.49 ± 0.07 | > 25 | 0.00856 ± 0.00146 | 0.00048 ± 0.0001 | > 25 |  |  |  |  |
| CCc1nc(N)nc(N)c1OCc1csc(-c2ccc(Cl)cc2)n1 [Compound 70] | 0.286 ± 0.0471 | 1.18 ± 0.03 | 24.3 ± 9.37 | 0.0302 ± 0.00159 | 0.00074 ± 9e-05 | 63.5 ± 17.6 |  |  |  |  |
| CCc1nc(N)nc(N)c1OCc1cc(-c2ccc(C(F)(F)F)cc2)no1 [Compound 41] | > 100 | 6.78 ± 2.21 | > 10 |  | 0.00429 ± 0.00031 | > 10 |  |  |  |  |
| CCc1nc(N)nc(N)c1OCc1cn(Cc2ccc(O)cc2)nn1 (as salt: hydrochloride) [Compound 28] |  |  |  |  |  |  |  |  |  | 224.2 to 225.2 |
| CCc1nc(N)nc(N)c1OCc1coc(-c2cccc(C)c2)n1 (as salt: hydrochloride) [Compound 51] |  |  |  |  |  |  |  |  |  | 225 to 226 |
| CCc1nc(N)nc(N)c1OCc1cn(-c2ccccc2)nn1 (as salt: hydrochloride) [Compound 13] |  |  |  |  |  |  |  |  |  | 212.5 to 213.5 |
| CCc1nc(N)nc(N)c1OCCc1cn(Cc2ccc(O)cc2)nn1 (as salt: hydrochloride) [Compound 30] |  |  |  |  |  |  |  |  |  | 213 to 215 |
| CCc1nc(N)nc(N)c1-c1cn(CCc2ccccc2)nn1 (as salt: hydrochloride) [Compound 7] |  |  |  |  |  |  |  |  |  | 203 to 204.5 |
| CCc1nc(N)nc(N)c1-c1cn(Cc2ccc(C(=O)OC)cc2)nn1 (as salt: hydrochloride) [Compound 4] |  |  |  |  |  |  |  |  |  | 222 to 223 |
| CCc1nc(N)nc(N)c1OCc1cn(Cc2ccc(C(=O)O)cc2)nn1 (as salt: hydrochloride) [Compound 29] |  |  |  |  |  |  |  |  |  | 223.8 to 224.8 |
| CCc1nc(N)nc(N)c1OCc1csc(-c2cccc(OCC(=O)OCc3ccccc3)c2)n1 (as salt: hydrochloride) (hydrate or solvate) [Compound 63] |  |  |  |  |  |  |  |  |  | 175 to 177 |
| CCc1nc(N)nc(N)c1OCc1cn(-c2ccc([N+](=O)[O-])cc2)nn1 (as salt: hydrochloride) [Compound 17] |  |  |  |  |  |  |  |  |  | 209 to 210.5 |
| CCc1nc(N)nc(N)c1OCc1csc(-c2ccc(OCC(=O)OCc3ccccc3)cc2)n1 (as salt: hydrochloride) (hydrate or solvate) [Compound 72] |  |  |  |  |  |  |  |  |  | 178 to 180 |
| CCc1nc(N)nc(N)c1OCc1cc(-c2ccc(Cl)cc2)no1 (as salt: hydrochloride) [Compound 35] |  |  |  |  |  |  |  |  |  | 230 to 231.5 |
| CCc1nc(N)nc(N)c1OCc1coc(-c2cccc(OCC(=O)OCc3ccccc3)c2)n1 (as salt: hydrochloride) (hydrate or solvate) [Compound 53] |  |  |  |  |  |  |  |  |  | 163.5 to 164.5 |
| CCc1nc(N)nc(N)c1OCc1cc(-c2cccc(C(=O)O)c2)no1 (as salt: hydrochloride) [Compound 40] |  |  |  |  |  |  |  |  |  | 192 to 194 |
| CCc1nc(N)nc(N)c1OCc1cc(-c2cccc(C(F)(F)F)c2)no1 (as salt: hydrochloride) [Compound 37] |  |  |  |  |  |  |  |  |  | 224 to 225.5 |
